Drawing on patent publication US12435080B2, “sGC stimulators” (Tisento Therapeutics Inc., priority 2016, dated 2025), this text covers EC50 for twelve compounds.

Each structure is given as a SMILES string. Values joined by “and” are separate entries in the source; they are usually repeats but may differ in a detail not shown here. Equal values may be shown once.

The assay deals with T1, sGC enzyme (Homo sapiens, UniProt Q02108+Q02153).
T1 construct: incorporated into these cells detect cGMP formed by the compounds stimulating the sGC enzyme; host or cells: HEK293 cells stably expressing GloSensor 40F cGMP biosensor
T1 sequence (Q02153 1-619): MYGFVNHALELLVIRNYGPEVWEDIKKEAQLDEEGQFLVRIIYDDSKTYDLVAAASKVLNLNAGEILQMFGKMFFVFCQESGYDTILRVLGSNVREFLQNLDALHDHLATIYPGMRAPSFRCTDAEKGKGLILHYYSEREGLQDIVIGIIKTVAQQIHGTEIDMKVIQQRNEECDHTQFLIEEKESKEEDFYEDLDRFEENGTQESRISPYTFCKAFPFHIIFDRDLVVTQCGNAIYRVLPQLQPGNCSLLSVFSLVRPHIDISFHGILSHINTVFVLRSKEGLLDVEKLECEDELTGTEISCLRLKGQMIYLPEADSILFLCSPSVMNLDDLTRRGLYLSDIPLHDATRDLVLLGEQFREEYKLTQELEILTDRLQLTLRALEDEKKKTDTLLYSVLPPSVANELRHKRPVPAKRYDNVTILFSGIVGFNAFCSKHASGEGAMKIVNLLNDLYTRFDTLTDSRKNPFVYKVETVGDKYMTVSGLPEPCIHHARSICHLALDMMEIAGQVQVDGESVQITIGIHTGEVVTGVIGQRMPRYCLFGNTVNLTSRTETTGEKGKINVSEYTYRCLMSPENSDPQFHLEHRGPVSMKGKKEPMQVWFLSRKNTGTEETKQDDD
T1 sequence (Q02108 1-690): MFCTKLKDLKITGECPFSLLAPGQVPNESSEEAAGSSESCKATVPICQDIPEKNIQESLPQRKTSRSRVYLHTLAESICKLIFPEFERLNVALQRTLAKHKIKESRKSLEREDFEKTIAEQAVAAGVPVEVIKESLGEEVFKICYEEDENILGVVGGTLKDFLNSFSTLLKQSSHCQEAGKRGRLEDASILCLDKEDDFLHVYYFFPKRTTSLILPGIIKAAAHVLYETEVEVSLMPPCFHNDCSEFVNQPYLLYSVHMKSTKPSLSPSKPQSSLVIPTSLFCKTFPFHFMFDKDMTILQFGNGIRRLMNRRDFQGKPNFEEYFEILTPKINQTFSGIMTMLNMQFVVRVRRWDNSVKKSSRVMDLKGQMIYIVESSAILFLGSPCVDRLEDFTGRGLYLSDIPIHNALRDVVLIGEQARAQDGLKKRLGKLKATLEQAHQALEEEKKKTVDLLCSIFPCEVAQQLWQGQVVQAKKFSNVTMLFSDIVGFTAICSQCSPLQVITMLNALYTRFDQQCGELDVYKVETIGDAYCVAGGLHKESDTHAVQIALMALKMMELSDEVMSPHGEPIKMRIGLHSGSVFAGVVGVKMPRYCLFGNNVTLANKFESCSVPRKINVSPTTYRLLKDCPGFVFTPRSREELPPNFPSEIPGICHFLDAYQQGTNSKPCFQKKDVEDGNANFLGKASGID
Briefly: cGMP GloSensor cell-based assay, 384-well format. The settings on record: HEK293 cells expressing GloSensor 40F cGMP; 10 μM DETA-NONOate; normalized to 30 μM Compound Y; compounds in Table IA; read-out: Glo-sensor AbsEC50. Summed up:
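HEK293 cells expressing GloSensor 40F cGMP luciferase biosensor, preloaded with 2 mM GloSensor substrate for 90 min at 25 °C. Endpoint luminescence read after 55 min compound incubation at room temperature.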
As to `FC(F)(F)c1n[nH]c(-c2nn(CCC(F)(F)C(F)(F)F)c3ncccc23)n1` [Compound I-2, 1-(3,3,4,4,4-pentafluorobutyl)-3-(3-(trifluoromethyl)-1H-1,2,4-triazol-5-yl)-1H-pyrazolo[3,4-b]pyridine], the EC50 is 100 to 1000 nM.

Regarding `FC(F)(F)c1n[nH]c(-c2nn(Cc3cncnc3)c3ncccc23)n1` [Compound I-4, 1-(Pyrimidin-5-ylmethyl)-3-(3-(trifluoromethyl)-1H-1,2,4-triazol-5-yl)-1H-pyrazolo[3,4-b]pyridine], the EC50 was less than 100 nM. With `Fc1ccccc1Cc1nn(-c2nc(C(F)(F)F)n[nH]2)c2cccnc12` [Compound I-31, 3-(2-Fluorobenzyl)-1-(3-(trifluoromethyl)-1H-1,2,4-triazol-5-yl)-1H-pyrazolo[4,3-b]pyridine], the EC50 lay in the range of 100 to 1000 nM. Consider `N#Cc1n[nH]c(-c2nn(Cc3ccccc3F)c3ncccc23)n1` [Compound I-41], for which the EC50 is less than 100 nM. As to `Fc1cccc(Cn2nc(-c3nc(C(F)(F)F)n[nH]3)c3cccnc32)c1F` [Compound I-48, 1-(2,3-Difluorobenzyl)-3-(3-(trifluoromethyl)-1H-1,2,4-triazol-5-yl)-1H-pyrazolo[3,4-b]pyridine], the EC50 was 100 to 1000 nM and < 100 nM. Consider `FC(F)(F)c1n[nH]c(-c2nn(Cc3ccccc3)c3ncccc23)n1` [Compound I-49, 1-Benzyl-3-(3-(trifluoromethyl)-1H-1,2,4-triazol-5-yl)-1H-pyrazolo[3,4-b]pyridine], for which the EC50 was less than 100 nM. Turning to `Cc1ncc(Cn2nc(-c3nc(C(F)(F)F)n[nH]3)c3ccccc32)cn1` [Compound I-62, 1-((2-methylpyrimidin-5-yl)methyl)-3-(3-(trifluoromethyl)-1H-1,2,4-triazol-5-yl)-1H-indazole], the EC50 was less than 100 nM.

Consider `OCc1n[nH]c(-c2nn(Cc3ccccc3F)c3ncccc23)n1` [Compound I-64, (5-(1-(2-fluorobenzyl)-1H-pyrazolo[3,4-b]pyridin-3-yl)-1H-1,2,4-triazol-3-yl)methanol], for which the EC50 is less than 100 nM.

As to `Fc1cccc(Cn2nc(-c3nc(Cl)n[nH]3)c3cccnc32)c1F` [Compound I-86, 3-(3-Chloro-1H-1,2,4-triazol-5-yl)-1-(2,3-difluorobenzyl)-1H-pyrazolo[3,4-b]pyridine], the EC50 was less than 100 nM. Consider `Fc1ccccc1Cn1nc(-c2nc(C3CC3(F)F)n[nH]2)c2cccnc21` (stereo not drawn) [Compound I-96, 3-(3-(2,2-Difluorocyclopropyl)-1H-1,2,4-triazol-5-yl)-1-(2-fluorobenzyl)-1H-pyrazolo[3,4-b]pyridine], for which the EC50 was less than 100 nM.

On to `Fc1ccccc1Cc1nn(-c2nc(C(F)F)n[nH]2)c2cccnc12` [Compound I-101, 1-(3-(Difluoromethyl)-1H-1,2,4-triazol-5-yl)-3-(2-fluorobenzyl)-1H-pyrazolo[4,3-b]pyridine], for which the EC50 is less than 100 nM.

As to `Fc1cccc(Cc2nn(-c3nc(C(F)(F)F)n[nH]3)c3cccnc23)c1F` [Compound I-105, 3-(2,3-Difluorobenzyl)-1-(3-(trifluoromethyl)-1H-1,2,4-triazol-5-yl)-1H-pyrazolo[4,3-b]pyridine], the EC50 is less than 100 nM.
